Tested on: MDA-MB-231 cells
Assay: cells
Assay type: cell-based, human

## CC(=O)O[C@H]1C(=O)[C@@]2(C)[C@H]([C@H](OC(=O)c3ccccc3)[C@]3(O)C[C@H](OC(=O)[C@H](O)[C@@H](NC(=O)c4ccccc4)c4ccccc4)C(C)=C1C3(C)C)[C@]1(OC(C)=O)CO[C@@H]1C[C@@H]2O [taxol, paclitaxel]
Homo sapiens, MDA-MB-231, read-out: IC50 dose
  IC50: ~50 nM
Free taxol, 43 μg dose, 24 h
  reduction of MDA-MB-231 viability: ~50%

Reference: patent US20240122867A1, “CORONAL PROTEIN-COATED NANOPARTICLES AND USES THEREOF” (UNIVERSITY OF CENTRAL FLORIDA RESEARCH FOUNDATION, INC., priority 2021, published 2024)
